From patent publication US10125453B2, “Antimicrobial textile products and method of obtaining thereof” (YEDITEPE ÜNIVERSITESI, priority 2013, dated 2018)

How the values were obtained:
Type in all cases: cell-based
Parameters in all cases: key: +: inhibition zones against the tested microorganisms were observed; −: inhibition zones were not detected
Pseudomonas aeruginosa = experiment: standard NCCLS disc diffusion method, Pseudomonas aeruginosa; settings: TSA, 36±1° C., 24 hours
Method: (§1) Antimicrobial properties of the textile products loaded with impregnation solution were examined by using standard NCCLS disc diffusion method (Lalitha, 2005). Briefly, the 100 μl solution including 10^8 cfu/ml bacteria, 10^6 cfu/ml yeast, and 10^4 spor/ml fungus was prepared with new cultures and inoculated with spreading method on Trypticase soy agar (TSA), Sabouraud Dextrose Agar (SDA), and Potato Dextrose Agar (PDA), respectively. The sections of approximately 1×1 cm, which were cut out from the textile products loaded with the impregnation solution comprising the stated concentrations of triclosan, chlorhexidine and disodium octaborate pentahydrate, were placed on inoculated petri dishes. Empty textile products which were not loaded with impregnation solution were used as negative control. […] The petri dishes, which were inoculated and on which textile products were placed, were kept at 36±1° C. for bacteria for 24 hours and 48 hours for yeasts and at 25±1° C. for fungi for 72 hours. Antimicrobial activity against microorganisms tested in standard disc diffusion method was assessed by measuring the inhibition zone. All tests were repeated at least twice.

Escherichia coli = experiment: standard NCCLS disc diffusion method, Escherichia coli; settings: TSA, 36±1° C., 24 hours
Method: as §1

MRSA = experiment: standard NCCLS disc diffusion method, MRSA; settings: TSA, 36±1° C., 24 hours
Method: as §1

Staphylococcus aureus = experiment: standard NCCLS disc diffusion method, Staphylococcus aureus; settings: 10 μg/disc, TSA, 36±1° C., 24 hours
Method: as §1

Penicillium spp. = experiment: standard NCCLS disc diffusion method, Penicillium spp.; settings: 100 u/disc, PDA, 25±1° C., 72 hours
Method: (§2) Antimicrobial properties of the textile products loaded with impregnation solution were examined by using standard NCCLS disc diffusion method (Lalitha, 2005). Briefly, the 100 μl solution including 10^8 cfu/ml bacteria, 10^6 cfu/ml yeast, and 10^4 spor/ml fungus was prepared with new cultures and inoculated with spreading method on Trypticase soy agar (TSA), Sabouraud Dextrose Agar (SDA), and Potato Dextrose Agar (PDA), respectively. The sections of approximately 1×1 cm, which were cut out from the textile products loaded with the impregnation solution comprising the stated concentrations of triclosan, chlorhexidine and disodium octaborate pentahydrate, were placed on inoculated petri dishes. Empty textile products which were not loaded with impregnation solution were used as negative control. As positive control, Ofloxacin (5 μg/disc) was used for bacteria and Nystatin (100 u/disc) was used for yeasts and fungi. The petri dishes, which were inoculated and on which textile products were placed, were kept at 36±1° C. for bacteria for 24 hours and 48 hours for yeasts and at 25±1° C. for fungi for 72 hours. Antimicrobial activity against microorganisms tested in standard disc diffusion method was assessed by measuring the inhibition zone. All tests were repeated at least twice.

Candida spp. = experiment: standard NCCLS disc diffusion method, Candida spp.; settings: 100 u/disc, SDA, 36±1° C., 48 hours
Method: as §2

Aspergillus spp. = experiment: standard NCCLS disc diffusion method, Aspergillus spp.; settings: 100 u/disc, PDA, 25±1° C., 72 hours
Method: as §2

Measured: In vitro antimicrobial test result (inhibition zone), positive control

CC1COc2c(N3CCN(C)CC3)c(F)cc3c(=O)c(C(=O)O)cn1c23 (stereo not shown) [Ofloxacin]
+: Pseudomonas aeruginosa | Escherichia coli | MRSA | Staphylococcus aureus

C[C@@H]1[C@H](O)[C@@H](C)/C=C/C=C/CC/C=C/C=C/C=C/C=C/C(O[C@H]2O[C@H](C)[C@@H](O)[C@H](N)[C@@H]2O)CC2O[C@](O)(CC(O)C(O)CCC(O)CC(O)CC(O)CC(=O)O[C@H]1C)CC(O)C2C(=O)O (stereo partly shown) [Nystatin]
+: Penicillium spp. | Candida spp. | Aspergillus spp.
